From patent publication US10272260B2, “Methods and devices for diagnosing, monitoring, or treating medical conditions through an opening through an airway wall” (Broncus Medical Inc., priority 2011, dated 2019)

Details: polymer system of polydimethylsiloxane vinyl terminated at various viscosity and a range of platinum-mono, di, tri and/or tetramethyldisiloxane complex
From the text: The amount of vinyl siloxane cross-linker may determine the rate of the drug release and diffusivity of the polymer to the drug.

release profile: acceptable
SMILES: CC(=O)O[C@H]1C(=O)[C@@]2(C)[C@H]([C@H](OC(=O)c3ccccc3)[C@]3(O)C[C@H](OC(=O)[C@H](O)[C@@H](NC(=O)c4ccccc4)c4ccccc4)C(C)=C1C3(C)C)[C@]1(OC(C)=O)CO[C@@H]1C[C@@H]2O [paclitaxel]
